Assays:
[1] = xn = mol fraction of the nth substance listed; details: 100 kPa, Liquid, x2 = 0; for viscosity: Concentric cylinders viscometry; for mass density: Vibrating tube method
[2] = refractive index (Na D-line) (dimensionless); xn = mol fraction of the nth substance listed; details: 100 kPa, Liquid, Standard Abbe refractometry, x2 = 0
[3] = 100 kPa, Liquid; for viscosity: Concentric cylinders viscometry; for mass density: Vibrating tube method
[4] = refractive index (Na D-line) (dimensionless); details: 100 kPa, Liquid, Standard Abbe refractometry

CCCCO [butan-1-ol] + CCOC(=O)CCC(=O)OCC
Details | mass density, [1] [kg/m3] | refractive index, [2] | viscosity, [1] [mPa·s]
288.15 K | 813.46 | 1.4012 | 3.365
293.15 K | 809.66 | 1.3992 | 2.913
298.15 K | 805.84 | 1.3972 | 2.563
303.15 K | 801.99 | 1.3951 | 2.257
308.15 K | 798.12 | 1.393 | 1.994
313.15 K | 794.22 | 1.391 | 1.779
318.15 K | 790.28 | 1.3889 | 1.576
323.15 K | 786.29 | 1.3867 | 1.422

CCOC(=O)CCC(=O)OCC [diethyl butanedioate]
Details | mass density, [3] [kg/m3] | refractive index, [4] | viscosity, [3] [mPa·s]
288.15 K | 1044.83 | 1.4217 | 3.195
293.15 K | 1039.63 | 1.4195 | 2.807
298.15 K | 1034.44 | 1.4173 | 2.491
303.15 K | 1029.25 | 1.4151 | 2.229
308.15 K | 1024.08 | 1.4129 | 2.008
313.15 K | 1018.9 | 1.4108 | 1.821
318.15 K | 1013.72 | 1.4088 | 1.66
323.15 K | 1008.55 | 1.4067 | 1.523

CCCCCCO [hexan-1-ol] + CCOC(=O)CCC(=O)OCC
Details | mass density, [1] [kg/m3] | refractive index, [2] | viscosity, [1] [mPa·s]
288.15 K | 822.26 | 1.4196 | 6.308
293.15 K | 818.7 | 1.4176 | 5.332
298.15 K | 815.12 | 1.4156 | 4.538
303.15 K | 811.52 | 1.4136 | 3.896
308.15 K | 807.89 | 1.4117 | 3.361
313.15 K | 804.25 | 1.4097 | 2.917
318.15 K | 800.56 | 1.4078 | 2.546
323.15 K | 796.85 | 1.4058 | 2.241

CCCO [propan-1-ol] + CCOC(=O)CCC(=O)OCC
Details | mass density, [1] [kg/m3] | refractive index, [2] | viscosity, [1] [mPa·s]
288.15 K | 807.75 | 1.3875 | 2.514
293.15 K | 803.77 | 1.3854 | 2.208
298.15 K | 799.76 | 1.3834 | 1.95
303.15 K | 795.72 | 1.3814 | 1.727
308.15 K | 791.64 | 1.3792 | 1.542
313.15 K | 787.52 | 1.377 | 1.378
318.15 K | 783.36 | 1.3748 | 1.236
323.15 K | 779.14 | 1.3726 | 1.124

— the NIST ThermoML archive (doi:10.1016/j.jct.2016.06.016)
